This is an account of results in publication PMC10384602 (Pharmaceuticals, 2023).

Where only a bound is given, the exact number is not on record here.

Series [1] can be described thus: logD7.4 in octanol/buffer mixture. Particulars: pH 7.4, room temperature. Format: physicochemical.
Series [2] is described as follows: Radiochemical stability of the formulated product on standing at room temperature. In kind it is physicochemical. Particulars: after standing for 90 min at room temperature.

As to `O=C(Cc1ccccc1)Nc1nnc(CCSCCc2nnc(N[11C](=O)Cc3ccccc3)s2)s1` [[^11C]BPTES], in series [1], the pH-dependent lipophilicity (logD) was 3.59. In addition, in series [2], the “radiochemical purity after standing” value was greater than 95%.
